Reference: patent US8541394B2, “Aminoglycoside antibiotics” (Meiji Seika Pharma Co., Ltd., priority 2006, dated 2013)
≈ marks a conversion by molar mass, not a printed value.

Experiments:
[1] = tested on: clinically isolated MRSA strain (n=9), which has low sensitivity to arbekacin; experiment: Antimicrobial activity (MIC), agar plate dilution method, MRSA with low sensitivity to arbekacin; assay type: cell-based, methicillin-resistant Staphylococcus aureus (MRSA); conditions: Staphylococcus aureus, clinically isolated MRSA strain (n=9) with low sensitivity to arbekacin, read-out: minimal inhibitory concentration (MIC)
Method: MIC of the compound represented by formula (I) produced in Example 1 against an MRSA strain, specifically a clinically isolated MRSA strain (n=9), which has low sensitivity to arbekacin and against which the minimal inhibitory concentration (MIC, μg/mL) is 4 to 8, was measured by an agar plate dilution method according to the standard method of Japan Society of Chemotherapy (Chemotherapy, Vol. 29, pp. 76 to 79, 1981).

kidney of normal mice = conditions: mouse, in vivo; for Amount of NAG in urine: ip, 120 mg/kg/day
Method: An evaluation system of influence on the kidney was constructed based on renal disease model preparation method using gentamicin (KIDNEY AND DIALYSIS, Vol. 31, 1991, extra edition, “Renal Disease Model”, p. 423 “Drug-induced Renal Damage and its Examination Method,” Kidney and Dialysis Editorial Committee, published by TOKYOIGAKUSYA). The influence of the compound represented by formula (I) produced in Example 1 on the kidney was evaluated using this evaluation system. A physiological saline administration group and an arbekacin administration group were set as control groups. Each group consisted of four mice (Crj: CD-1 (ICR) female mice of eight weeks old).
In the above evaluation system, the evaluation of nephrotoxicity was carried out using NAG as an index. NAG exists in lysosome in each tissue of humans and animals, is an enzyme, which converts a mucopolysaccharide to a glycoprotein, for example, converts β-N-acetyl-D-glucosaminide to β-N-acetyl-D-glucosamine, and is plentifully present in proximal uriniferous tubule epithelial cells of the kidney in which aminoglycoside antibiotics are particularly accumulated. When the kidney, especially its proximal uriniferous tubule is damaged, NAG is released into urine to increase the amount of NAG in the urine. Accordingly, the increase in the amount of NAG in urine is considered to reflect proximal uriniferous tubule damage and is adopted as one of biochemical markers for estimating the level of renal insufficiency in clinical test items. The amount of NAG is measured by an examination method, for example, an MCP-NAG method (Outline of Latest Internal Medicine, Vol. 4, Clinical Laboratory—Kensa No Susumekata To Deta No Yomikata (How To Forward Examination and How To Read Data)—<Naika Soron 4 (General Remarks Of Internal Medicine 4> p. 274, Imura et al. (ed.), published by Nakayama Syoten Co., Ltd., 1994).
A solution of physiological saline of the compound according to the present invention having a concentration of 12 mg/mL was administered to the mice in each group at a dose of 120 mg/kg/day (in two divided doses; morning and afternoon) for 4 days by repeated intraperitoneal administration. Naturally excreted urine was collected for about 24 hr from the completion of the administration in the morning on day 4, and the amount of NAG in the urine was measured by the MCP-NAG method. The same treatment was carried out for the physiological saline administration group and the arbekacin administration group.
The influence of arbekacin and an arbekacin analogue TS2037 (5,4″-diepiarbekacin) produced according to the description of WO 2005/070945 on the kidney was evaluated in the same manner as in Test Example 3. […]

[2] = tested on: clinically isolated MRSA strain, which has high resistance to arbekacin; experiment: Antimicrobial activity (MIC), agar plate dilution method, MRSA with high resistance to arbekacin; assay type: cell-based, methicillin-resistant Staphylococcus aureus (MRSA); conditions: Staphylococcus aureus, different from Test Example 1
[3] = tested on: proximal uriniferous tubule epithelial cells of the kidney of pigs; conditions: pig kidney proximal uriniferous tubule epithelial cells; compared with arbekacin; 44th ICAAC (2004) subject No. F-716; cited from earlier work

Compound	MIC [1] [µg/mL]	Amount of NAG in urine (kidney of normal mice) [mIU]	amount of NAG in the urine (kidney of normal mice) [mIU]	MIC [2] [µg/mL]	nephrotoxicity using NAG as an index [3]
NCC[C@H](O)C(=O)NC1C(O)[C@H](N)C(O[C@H]2OC(CN)CCC2N)C(O)[C@H]1O[C@H]1OC(CO)[C@@H](O)C(N)C1O (stereo in doubt) [Compound represented by formula (I), 2-Hydroxyarbekacin]	0.5 to 2	74.7			
NCC[C@H](O)C(=O)N[C@@H]1C[C@H](N)[C@@H](O[C@H]2O[C@H](CN)CC[C@H]2N)[C@H](O)[C@H]1O[C@H]1O[C@H](CO)[C@@H](O)[C@H](N)[C@H]1O [Arbekacin, (S)-1-N-(4-amino-2-hydroxybutyryl)dibekacin]	4 to 8 (≈ 7.24 to 14.5 µM)	135.0	168.5	128 (≈ 232 µM)	
NCC[C@H](O)C(=O)NC1C[C@H](N)C(O[C@H]2OC(CN)CCC2N)C(O)[C@H]1O[C@H]1OC(CO)[C@H](O)C(N)C1O (some centres unmarked) [TS2037, 5,4″-diepiarbekacin]			358.8		higher than that of arbekacin
